Where two headings read alike, the source gives them in different places.

This assay concerns the target T1, human TLR9 (Homo sapiens, UniProt Q9NR96).
T1 sequence (Q9NR96 26-1032): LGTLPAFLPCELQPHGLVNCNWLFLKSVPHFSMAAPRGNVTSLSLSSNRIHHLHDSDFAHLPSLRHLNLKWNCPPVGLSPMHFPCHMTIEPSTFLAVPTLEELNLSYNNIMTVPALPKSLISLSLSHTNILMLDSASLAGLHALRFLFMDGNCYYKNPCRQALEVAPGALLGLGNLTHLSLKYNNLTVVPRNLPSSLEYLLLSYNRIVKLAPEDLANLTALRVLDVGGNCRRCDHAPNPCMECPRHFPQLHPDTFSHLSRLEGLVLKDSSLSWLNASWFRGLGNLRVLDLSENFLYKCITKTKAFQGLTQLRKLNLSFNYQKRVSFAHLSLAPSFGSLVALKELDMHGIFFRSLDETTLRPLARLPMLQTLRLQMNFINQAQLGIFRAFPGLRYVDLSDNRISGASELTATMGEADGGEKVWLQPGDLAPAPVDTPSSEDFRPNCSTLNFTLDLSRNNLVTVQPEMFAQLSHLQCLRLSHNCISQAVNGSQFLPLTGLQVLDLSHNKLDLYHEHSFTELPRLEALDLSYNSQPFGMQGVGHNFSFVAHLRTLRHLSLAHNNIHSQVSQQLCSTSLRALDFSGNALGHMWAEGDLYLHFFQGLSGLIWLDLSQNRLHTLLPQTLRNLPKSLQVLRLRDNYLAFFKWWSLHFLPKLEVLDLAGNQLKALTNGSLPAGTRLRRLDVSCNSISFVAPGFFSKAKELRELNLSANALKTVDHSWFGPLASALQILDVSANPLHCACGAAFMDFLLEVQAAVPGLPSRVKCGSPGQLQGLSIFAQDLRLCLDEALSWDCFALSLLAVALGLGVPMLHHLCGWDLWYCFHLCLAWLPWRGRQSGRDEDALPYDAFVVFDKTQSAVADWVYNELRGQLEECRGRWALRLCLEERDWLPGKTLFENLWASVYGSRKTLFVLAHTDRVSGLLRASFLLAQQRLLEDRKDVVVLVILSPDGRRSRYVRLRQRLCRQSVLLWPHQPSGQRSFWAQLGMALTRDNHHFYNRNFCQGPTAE
Briefly: HEK293-Blue-hTLR-9 cells assay (SEAP reporter, ODN2006 stimulation). It counts as cell-based. As to the method:
The following tests were carried out in order to determine the activity of the compounds of formula (I) in HEK293-Blue-hTLR-7/8/9 cells assay.
HEK293-Blue-hTLR-9 Cells Assay:
A stable HEK293-Blue-hTLR-9 cell line was purchased from InvivoGen (Cat. #: hkb-htlr9, San Diego, California, USA). These cells were originally designed for studying the stimulation of human TLR9 by monitoring the activation of NF-κB. A SEAP (secreted embryonic alkaline phosphatase) reporter gene was placed under the control of the IFN-β minimal promoter fused to five NF-κB and AP-1-binding sites. The SEAP was induced by activating NF-κB and AP-1 via stimulating HEK-Blue hTLR9 cells with TLR9 ligands. Therefore the reporter expression was declined by TLR9 antagonist under the stimulation of a ligand, such as ODN2006 (Cat. #: tlrl-2006-1, Invivogen, San Diego, California, USA), for incubation of 20 hrs. The cell culture supernatant SEAP reporter activity was determined using QUANTI-Blue™ kit (Cat. #: rep-qb1, Invivogen, San Diego, California, USA) at a wavelength of 640 nm, a detection medium that turns purple or blue in the presence of alkaline phosphatase.
HEK293-Blue-hTLR9 cells were incubated at a density of 250,000˜450,000 cells/mL in a volume of 170 μL in a 96-well plate in Dulbecco's Modified Eagle's medium (DMEM) containing 4.5 g/L glucose, 50 U/mL penicillin, […], 2 mM L-glutamine, 10% (v/v) heat-inactivated fetal bovine serum with addition of 20 μL test compound in a serial dilution in the presence of final DMSO at 1% and 10 μL of 20 uM ODN2006 in above DMEM, perform incubation under 37° C. in a CO2 incubator for 20 hrs. Then 20 μL of the supernatant from each well was incubated with 180 μL Quanti-blue substrate solution at 37° C. for 2 hrs and the absorbance was read at 620˜655 nm using a spectrophotometer. The signalling pathway that TLR9 activation leads to downstream NF-κB activation has been widely accepted, and therefore similar reporter assay was modified for evaluating TLR9 antagonist.

The mark [1] stands for this setting: HEK293-Blue-hTLR-9 cells, ODN2006 ligand, 20 hrs incubation, read-out: TLR9 IC50.

Take `C[C@@H]1CN(c2ccc(C#N)n3nccc23)C[C@H](C(=O)NCC2CN(C)CCO2)O1` (stereo partly drawn) [Example 7, (2R,6R)-4-(7-cyanopyrazolo[1,5-a]pyridin-4-yl)-6-methyl-N-[(4-methylmorpholin-2-yl)methyl]morpholine-2-carboxamide]: under setting [1], the IC50 (in general, the concentration at which inhibition is half-maximal) is 58 µM.
`C[C@@H]1CN(c2ccc(C#N)n3nccc23)C[C@H](C(=O)NC2CC3CCCC(C2)N3C)O1` (stereo partly drawn) [Example 35, (2R,6R)-4-(7-cyanopyrazolo[1,5-a]pyridin-4-yl)-6-methyl-N-(9-methyl-9-azabicyclo[3.3.1]nonan-3-yl)morpholine-2-carboxamide] had an IC50 of 11 µM.
`C[C@@H]1CN(c2ccc(C#N)n3nccc23)C[C@H](C(=O)NC2CCCNCC2)O1` (stereo partly drawn) [Example 6, (2R,6R)-N-(azepan-4-yl)-4-(7-cyanopyrazolo[1,5-a]pyridin-4-yl)-6-methyl-morpholine-2-carboxamide]: the IC50 under setting [1] was determined as 4.8 µM.
On to `C[C@H]1C[C@@H](NC(=O)[C@H](C)N)CN(c2ccc(C#N)n3nccc23)C1` [Example 44, (2S)-2-amino-N-[(3R,5S)-1-(7-cyanopyrazolo[1,5-a]pyridin-4-yl)-5-methyl-3-piperidyl]propanamide], for which the IC50 under setting [1] stood at 10 µM.
Still for that read-out and setting: the value for `C[C@@H]1CN(c2ccc(C#N)n3nccc23)C[C@H](C(=O)NC2C3CNCC2COC3)O1` (stereo partly drawn) [Example 27, (2R,6R)-4-(7-cyanopyrazolo[1,5-a]pyridin-4-yl)-6-methyl-N-(3-oxa-7-azabicyclo[3.3.1]nonan-9-yl)morpholine-2-carboxamide] was 6.8 µM.
In the case of `C[C@@H]1CN(c2ccc(C#N)n3nccc23)C[C@H](C(=O)N2CCC3(CCNCC3)CC2)O1` [Example 28, 4-[(2R,6R)-2-(3,9-diazaspiro[5.5]undecane-3-carbonyl)-6-methyl-morpholin-4-yl]pyrazolo[1,5a]pyridine-7-carbonitrile], the IC50 under setting [1] was 1.7 µM.
`C[C@@H]1CN(c2ccc(C#N)n3nccc23)C[C@H](C(=O)NC2C3CNC[C@@H]32)O1` (stereo partly drawn) [Example 31, Trans-(2R,6R)-N-(3-azabicyclo[3.1.0]hexan-6-yl)-4-(7-cyanopyrazolo[1,5-a]pyridin-4-yl)-6-methyl-morpholine-2-carboxamide]: under setting [1], the IC50 was 1.1 µM.
Still for that read-out and setting: the value for `C[C@@H]1CN(c2ccc(C#N)n3nccc23)C[C@H](C(=O)NC2CCN(C)CC2)O1` [Example 1, (2R,6R)-4-(7-cyanopyrazolo[1,5-a]pyridin-4-yl)-6-methyl-N-(1-methyl-4-piperidyl)morpholine-2-carboxamide] was 15 µM; that for `CCC(O)CNC(=O)[C@H]1CN(c2ccc(C#N)n3nccc23)C[C@@H](C)O1` (stereo partly drawn) [Example 13, (2R,6R)-4-(7-cyanopyrazolo[1,5-a]pyridin-4-yl)-N-(2-hydroxybutyl)-6-methyl-morpholine-2-carboxamide] was greater than 100 µM; that for `C[C@@H]1CN(c2ccc(C#N)n3nccc23)C[C@H](C(=O)NC2CC3CCCC(C2)N3)O1` (stereo partly drawn) [Example 14, (2R,6R)-N-(9-azabicyclo[3.3.1]nonan-3-yl)-4-(7-cyanopyrazolo[1,5-a]pyridin-4-yl)-6-methyl-morpholine-2-carboxamide] was 1.6 µM.
Same read-out and setting: the value for `C[C@@H]1CN(c2ccc(C#N)n3nccc23)C[C@H](C(=O)NC2C3CCC2CNC3)O1` (stereo partly drawn) [Example 26, (2R,6R)-N-(3-azabicyclo[3.2.1]octan-8-yl)-4-(7-cyanopyrazolo[1,5-a]pyridin-4-yl)-6-methyl-morpholine-2-carboxamide] was 13 µM.
Same read-out and setting: the value for `C[C@@H]1CN(c2ccc(C#N)n3nccc23)C[C@H](C(=O)NC2CC3CCC2CN3C)O1` (stereo partly drawn) [Example 34, (2R,6R)-4-(7-cyanopyrazolo[1,5-a]pyridin-4-yl)-6-methyl-N-(2-methyl-2-azabicyclo[2.2.2]octan-5-yl)morpholine-2-carboxamide] was 11 µM; that for `C[C@@H]1CN(c2ccc(C#N)n3nccc23)C[C@H](C(=O)NC2CCOCC2)O1` [Example 4, (2R,6R)-4-(7-cyanopyrazolo[1,5-a]pyridin-4-yl)-6-methyl-N-tetrahydropyran-4-yl-morpholine-2-carboxamide] was greater than 100 µM; that for `C[C@@H]1CN(c2ccc(C#N)n3nccc23)C[C@H](C(=O)NC2C3CCCC2CNC3)O1` (stereo partly drawn) [Example 37, (2R,6R)-N-(3-azabicyclo[3.3.1]nonan-9-yl)-4-(7-cyanopyrazolo[1,5-a]pyridin-4-yl)-6-methyl-morpholine-2-carboxamide] was 6.8 µM.
For `C[C@H]1C[C@@H](N)CN(c2ccc(C#N)n3nccc23)C1` [Example 43, 4-[(3R,5S)-3-amino-5-methyl-1-piperidyl]pyrazolo[1,5-a]pyridine-7-carbonitrile], the IC50 under setting [1] turned out to be 10 µM.
Same read-out and setting: the value for `C[C@@H]1CN(c2ccc(C#N)n3nccc23)C[C@H](C(=O)NCC(C)(C)CN)O1` [Example 39, (2R,6R)-N-(3-amino-2,2-dimethyl-propyl)-4-(7-cyanopyrazolo[1,5-a]pyridin-4-yl)-6-methyl-morpholine-2-carboxamide] was 19 µM; that for `C[C@@H]1CN(c2ccc(C#N)n3nccc23)C[C@H](C(=O)NC(C)(C)CN)O1` [Example 41, (2R,6R)-N-(2-amino-1,1-dimethyl-ethyl)-4-(7-cyanopyrazolo[1,5-a]pyridin-4-yl)-6-methyl-morpholine-2-carboxamide] was 11 µM.
In the case of `C[C@H]1C[C@@H](NCC#N)CN(c2ccc(C#N)n3nccc23)C1` [Example 46, 4-[(3R,5S)-3-(cyanomethylamino)-5-methyl-1-piperidyl]pyrazolo[1,5-a]pyridine-7-carbonitrile], under setting [1], the IC50 stood at 31 µM.
In the case of `C[C@@H]1CN(c2ccc(C#N)n3nccc23)C[C@H](C(=O)NC2CN(C)CC23CC3)O1` (stereo partly drawn) [Example 32, (2R,6R)-4-(7-cyanopyrazolo[1,5-a]pyridin-4-yl)-6-methyl-N-(5-methyl-5-azaspiro[2.4]heptan-7-yl)morpholine-2-carboxamide], under setting [1], the IC50 came to 9.7 µM.
On the same count and under the same terms, the value for `C[C@@H]1CN(c2ccc(C#N)n3nccc23)C[C@H](C(=O)NCC2CCNC2)O1` (stereo partly drawn) [Example 40, (2R,6R)-4-(7-cyanopyrazolo[1,5-a]pyridin-4-yl)-6-methyl-N-(pyrrolidin-3-ylmethyl)morpholine-2-carboxamide] was 48 µM; that for `C[C@@H]1CN(c2ccc(C#N)n3nccc23)C[C@H](C(=O)NCC2CNCC2(F)F)O1` (stereo partly drawn) [Example 18, (2R,6R)-4-(7-cyanopyrazolo[1,5-a]pyridin-4-yl)-N-[(4,4-difluoropyrrolidin-3-yl)methyl]-6-methyl-morpholine-2-carboxamide] was greater than 100 µM.
Consider `C[C@@H]1CN(c2ccc(C#N)n3nccc23)C[C@H](C(=O)N2CC(N)C2)O1` [Example 8, 4-[(2R,6R)-2-(3-aminoazetidine-1-carbonyl)-6-methyl-morpholin-4-yl]pyrazolo[1,5a]pyridine-7-carbonitrile], for which the IC50 under setting [1] was determined as 70 µM.
On the same count and under the same terms, the value for `C[C@@H]1CN(c2ccc(C#N)n3nccc23)C[C@H](C(=O)NC2CCNC2)O1` (stereo partly drawn) [Example 25, (2R,6R)-4-(7-cyanopyrazolo[1,5-a]pyridin-4-yl)-6-methyl-N-pyrrolidin-3-yl-morpholine-2-carboxamide] was 25 µM.

The values are drawn from patent US12252484B2, “Pyrazolopyridine compounds for the treatment of autoimmune disease” (Hoffmann-La Roche Inc., priority 2018, dated 2025).
